From publication PMC12851007 (Angewandte Chemie (International Ed. in English), 2025) come the findings set out here.

Each structure is given as a SMILES string. Where a SMILES comes first, the peptide text is derived from it.

The nature of experiment [1]: Dual-channel assay, CX4/LCG channel, POPC vesicles. The following applies: 175 mM glucose; for EC50: 12.5 µM POPC⸧CX4/LCG-LUVs and 12.5 µM POPC⸧CF-LUVs in 10 mM Hepes, pH 7.5, 25 °C, λexc 369/λem 475 nm, error = SD of fit, n = 1; for membrane activity in the CX4/LCG channel compared with the CF channel: dual-channel, seven independent POPC LUV batches (n = 7), penetratin 15 µM, Pep-1 10 µM, LRLLRW 30 µM, TP10 0.15 µM, 10 mM Hepes, pH 7.5, t-test/ANOVA p < 0.001, melittin: Figure S35 and Table S9. It is filed as in vitro ADME. An excerpt: With the established identical extravesicular conditions in both assays, we further envisaged a simultaneous measurement of both assays within the same solution to enhance the comparability of the measurements. This became possible after optimization of the excitation and emission wavelengths. […] A further optimization was required, because the dye concentrations in the CF assay and the CX4/LCG assay are largely different.^[ [51], [52] ^] Consequently, simultaneous monitoring requires the detection of a low amount of LCG in the presence of a high concentration of the much more brightly fluorescent CF, which challenges the dynamic range of a typical fluorescence spectrometer in a dual‐channel measurement. To reduce the fluorescence read‐out of CF, the excitation wavelength was shifted from the absorption maximum at ca. 490 nm to 525 nm, where CF has a much lower absorbance, and the emission in the CF channel was shifted from its maximum at ca. 515 nm to 545 nm to further reduce the fluorescence of CF. To maintain a high LCG fluorescence, excitation was performed at the absorption maximum at 369 nm. Since CF has a residual absorbance at this excitation wavelength, emission in the LCG channel was monitored at 475 nm instead of 502 nm to eliminate spill‐over of CF fluorescence into the LCG channel. […]
Time-dep endent fluores cence intensit y traces, I (t), were subsequentl y normalized to fractional intensities, If(t), using equation (1) and the concentration- dependent fractional intensities just before the addition of th e calibration co cktail, I f, w ere then normaliz ed to fr actional membran e activities, Y, using equation (2). The fractional membrane activities, Y, were subsequently plotted against the peptide concentration, c, and anal ysed using the Hill equation (3) to obtain the effective molar concentration, EC 50, and the Hill coefficient, n. For peptides with too low activity to determine Y max ex perimentall y, Y max was fixed at 1.0 during fitting. […]
Dual-Channel Measurements
Vesicles w ere prep ared a s described abov e (se e en try (4) in Table S2 and entry (3) in Table S3) and eluted with freshl y prepared 10 mM Hepes, 175mM glucos e, pH 7.5 i n the size exclusion chromatograph y. For the measurements, an approp riate volume o f the liposome stock solutions was diluted to 2m L in a 10× 10 mm PS cuvette wi th 10 mM Hep es bu ffer and 175 mM glucos e at pH 7.5 to afford 12.5µM POPC ⊃CX4/LCG-LUVs and 12.5 µM POPC⊃CF-LUVs (25 µM POPC total). The cuvette was placed into a thermostatted fluorimeter sample holder at 25.0 °C and gentl y stirred at 300 rpm. The fluorescence intensity w as simultaneous l y r eco rded in the CF chann el ( λ exc = 525 nm, λ em = 545 nm) and in the LCG channel ( λ exc = 369 nm, λ em = 475 nm) with an ex citation slit width of 5 nm and an emission slit width of 5 n m during addition of 20 µL peptide stock solution of varying concentrations at 60 s and 20 µL of a calibration

Experiment [2] is described as follows: CX4/LCG supramolecular tandem membrane assay, POPC vesicles. The conditions noted are these: n = 1; for Y30µM, membrane activity, CX4/LCG assay: 30 µM peptide, 25 µM POPC⸧CX4/LCG-LUVs (inside 700 µM CX4, 500 µM LCG) in 10 mM Hepes, pH 7.0, 25 °C, fluorescence λexc 369/λem 502 nm, peptide at 60 s, TX-100/protamine at 600 s, fractional activity; for EC50: pH 7.5, error = SD of fit. In kind it is in vitro ADME. As for the experimental part:
Membrane Activity M easurements
Vesicle preparation. 100 µ L of a solution of 25 mg/ml of POPC in chloroform or 200 µ L of a solution of 25 mg/ml of EYPC in chloroform was purged with nitrogen and dried overnight under hi gh vacuum. The thin lipid film was rehydrated with 1 ml reh ydrati on buffer (= inside buffer, see Tabl e S2 ) b y agitation at room temperature for 30min and then subjected to 2 0 freeze- th aw c ycles (freezing in liquid nitro gen and thawing at 40 °C). […]
Ta b l e S 2. Combinations of lipids and inside and outside buffer for CX4/LCG -LUVs.
No. Lipid Inside buffer = rehydration buffer Outside buffer
(4) POPC 10 mM Hepes, 700 µM CX4, 500 µM LCG, 10 mM Hepes buffer, 175 mM glucose, pH 7.5 [a] 175 mM glucose, pH 7.5 [a]
[a] Glucose b uffers (183 mOsm/L at 25 °C) were used within one week after preparation.
Vesicle quality control. T o ensure the absence of the CX4/ LCG reporter pair in the ex travesicular ph ase, 20 µL of the collected liposome fr action w as diluted to 2 ml with outside buffer and the fluor escen ce (λ exc = 369 nm; λ em = 502 nm) was recorded during the addition of […]
The final lipid content in the liposome suspension after p repa rat ion and separ ation was d etermined b y NMR as p reviousl y reported. Assay protocol. An appropriate volume of the liposome stock solutions was diluted to 2m L with outside buffer in a 10 ×10 mm quartz glass cuvette to afford a phospholipid concentration of 25 µM. The cuvette was placed into a thermostatted fluorimeter sample holder at 25.0 °C and gentl y stirred at 300 rpm. Subsequently, the time-dependent change in fluorescence intensity (λ exc = 369 nm; λ em = 502 nm) was record ed during addition of 20 µ L of peptide stock solutions of varying concentrations at 60 s. At 600 s, 20µ L o f a solution containing 1.6% (wt/vol) TX-100 and 1.5 mM protamine was added for calibration to affo rd 0.016% (wt/vol) TX-100 and 15 µM protamine final concent rations.
Time-dep endent fluores cence intensit y traces, I (t), were subsequentl y normalized to fractional intensities, If(t), using equation (1). Therein, I 0 is the intensity just before addition of peptide and I ∞ is the constant intensit y after addition of the calibration cockt ail.
IIf (tt ) = II (tt )−II0II∞ − II0 (1)
The concentration-dependent fractional intensities just before the addition of the calibration cocktail, If, were then normalized to fractional membrane activities, Y, using equation (2).
Therein, If,0 is the fractional intensit y just before addition of the calibration cocktail in absence of peptide and I f,∞ is the constant fractional intensity after addition of the calibration cocktail.
YY = IIf − IIf,0IIf,∞ − IIf,0 (2)
The fractional membrane activities, Y, were subsequently plotted against the peptide concentration, c, and analysed using the Hill equation (3) to obtain the effective molar concentration, EC50, and the Hill coefficient, n. Y0 and Y ma x are the fractional membrane activities in absen ce o f p eptide and at max imal peptide concent rations. For peptides with too little activity to determine Y ma x ex perimentall y, Y max was fixed at 1.0 during fitting. […]

[3] abbreviates: single-channel, 25 µM POPC⸧CX4/LCG-LUVs, inside 10 mM Hepes, 700 µM CX4, 500 µM LCG, 175 mM glucose, outside 10 mM Hepes, 175 mM glucose, read-out: EC50, CX4/LCG assay in glucose-containing buffer.
Setting [4] is: 25 µM lipid, POPC⊃CX4/LCG-LUVs, 10 mM Hepes, fractional activity at 590 s, Hill fit, read-out: EC50, CX4/LCG assay, POPC.

Turning to `CC[C@H](C)[C@H](NC(=O)[C@H](CCCCN)NC(=O)[C@H](CCCCN)NC(=O)[C@H](C)NC(=O)[C@H](CC(C)C)NC(=O)[C@H](C)NC(=O)[C@H](C)NC(=O)[C@H](CC(C)C)NC(=O)[C@H](C)NC(=O)[C@H](CCCCN)NC(=O)[C@H](CC(C)C)NC(=O)[C@H](CC(N)=O)NC(=O)[C@@H](NC(=O)[C@H](CCCCN)NC(=O)CNC(=O)[C@H](CC(C)C)NC(=O)[C@H](CC(C)C)NC(=O)[C@H](Cc1ccc(O)cc1)NC(=O)CNC(=O)[C@H](C)N)[C@@H](C)CC)C(=O)N[C@@H](CC(C)C)C(=O)O` [TP10], in experiment [1], the EC50 came to 0.78 ± 0.09 µM and the “membrane activity in the CX4/LCG channel compared with the CF channel” value is recorded as “significantly higher membrane activity with the CF dye efflux assay”. Moreover, the “Y30µM, membrane activity, CX4/LCG assay” value in experiment [2] is reported as 0.88. The EC50 in experiment [2] (setting [3]) came out at 1.7 ± 0.6 µM.

For `CC[C@H](C)[C@H](NC(=O)[C@H](CCCCN)NC(=O)[C@@H](NC(=O)[C@@H](N)CCC(N)=O)[C@@H](C)CC)C(=O)N[C@@H](Cc1c[nH]c2ccccc12)C(=O)N[C@@H](Cc1ccccc1)C(=O)N[C@@H](CCC(N)=O)C(=O)N[C@@H](CC(N)=O)C(=O)N[C@@H](CCCNC(=N)N)C(=O)N[C@@H](CCCNC(=N)N)C(=O)N[C@@H](CCSC)C(=O)N[C@@H](CCCCN)C(=O)N[C@@H](Cc1c[nH]c2ccccc12)C(=O)N[C@@H](CCCCN)C(=O)N[C@@H](CCCCN)C(=O)O` (H-QIKIWFQNRRMKWKK-OH), the EC50 in experiment [1] amounted to 28 ± 2 µM; in experiment [2] (setting [4]), 70 ± 13 µM; in experiment [2] (setting [3]), 140 ± 40 µM. For the same compound, the “membrane activity in the CX4/LCG channel compared with the CF channel” value in experiment [1] was “significantly higher”. Further, the “Y30µM, membrane activity, CX4/LCG assay” value in experiment [2] turned out to be 0.49.

Take `CC(C)C[C@H](NC(=O)[C@H](CC(C)C)NC(=O)[C@H](CCCNC(=N)N)NC(=O)[C@@H](N)CC(C)C)C(=O)N[C@@H](CCCNC(=N)N)C(=O)N[C@@H](Cc1c[nH]c2ccccc12)C(N)=O` [LRLLRW] (H-LRLLRW-NH2): in experiment [1], the EC50 is 9 ± 0.9 µM and the “membrane activity in the CX4/LCG channel compared with the CF channel” value is reported as “significantly higher”. Further, the “Y30µM, membrane activity, CX4/LCG assay” value in experiment [2] is 0.53. The EC50 in experiment [2] (setting [3]) was 14 ± 2 µM.

Consider `CC(C)[C@H](NC(=O)[C@H](CCCCN)NC(=O)[C@H](CCCNC(=N)N)NC(=O)[C@H](CCCCN)NC(=O)[C@H](CCCCN)NC(=O)[C@H](CCCCN)NC(=O)[C@@H]1CCCN1C(=O)[C@H](CCC(N)=O)NC(=O)[C@H](CO)NC(=O)[C@H](Cc1c[nH]c2ccccc12)NC(=O)[C@H](CC(=O)O)NC(=O)[C@@H](NC(=O)[C@H](Cc1c[nH]c2ccccc12)NC(=O)[C@H](Cc1c[nH]c2ccccc12)NC(=O)[C@@H](NC(=O)[C@H](CC(=O)O)NC(=O)[C@H](Cc1c[nH]c2ccccc12)NC(=O)[C@H](Cc1c[nH]c2ccccc12)NC(=O)[C@@H](NC(=O)[C@H](CC(=O)O)NC(=O)[C@@H](N)CCCCN)[C@@H](C)O)[C@@H](C)O)[C@@H](C)O)C(=O)O` [Pep‐1] (H-KDTWWDTWWTDWSQPKKKRKV-OH), for which the EC50 in experiment [1] was 22 ± 16 µM; in experiment [2] (setting [4]), 32 ± 14 µM; in experiment [2] (setting [3]), 4.5 ± 0.7 µM. Further, in experiment [1], the “membrane activity in the CX4/LCG channel compared with the CF channel” value was “significantly higher”. In experiment [2], the “Y30µM, membrane activity, CX4/LCG assay” value came to 0.67.
